Measured values taken from US20050250765A1, “Diazepinones as antiviral agents” (priority 2000, published 2005).

Test system: Vero cells
Assay: not given
Details: read-out: TC50; 2-day XTT, no virus

Molecule	CC50 [µM]
5-(3-Methoxy-benzyl)-3-nitro-5,6,7,8-tetrahydro-10-thia-5,8-diaza-benz[a]azulen-9-one [W]	100

Test system: not listed separately
Assay: in vitro
Details: African green monkey, TC50

Molecule	CC50 at 2 day [µM]
COc1ccc2sc3c(c2c1)N(Cc1ccc(C#N)cc1)CCN(C)C3=O [AA4, 4-(3-Methoxy-8-methyl-9-oxo-6,7,8,9-tetrahydro-10-thia-5,8-diaza-benzo[a]azulen-5-ylmethyl)-benzonitrile]	100
COc1ccc2sc3c(c2c1)NCCNC3=O [B, 3-Methoxy-5,6,7,8-tetrahydro-10-thia-5,8-diaza-benzo[a]azulen-9-one]	4.5
COc1cccc(CN2CCNC(=O)c3sc4ccc(OC)cc4c32)c1 [C, 3-Methoxy-5-(3-methoxy-benzyl)-5,6,7,8-tetrahydro-10-thia-5,8-diaza-benzo[a]azulen-9-one]	10
C=C(C)CN1CCNC(=O)c2sc3ccc(F)cc3c21 [CC5, 3-Fluoro-5-(2-methyl-allyl)-5,6,7,8-tetrahydro-10-thia-5,8-diaza-benz[a]azulen-9-one]	18.5
CCCN1CCNC(=O)c2sc3ccc(OCC)cc3c21 [D, 3-Ethoxy-5-propyl-5,6,7,8-tetrahydro-10-thia-5,8-diaza-benzo[a]azulen-9-one]	100
CCCCN1CCNC(=O)c2sc3ccc([N+](=O)[O-])cc3c21 [DD, 5-n-Butyl-3-nitro-5,6,7,8-tetrahydro-10-thia-5,8-diaza-benz[a]azulen-9-one]	12.9
O=C1NCCNc2c1ccc1cnccc21 [F, 8,9,10,11-Tetrahydro-3,8,11-triaza-cyclohepta[a]naphthalen-7-one]	1.7
CN1CCNC(=O)c2ccc3cnccc3c21 [GG4, 11-Methyl-8,9,10,11-tetrahydro-3,8,11-triaza-cyclohepta[a]naphthalen-7-one]	11.5
C=C(Cl)CN1CCNC(=O)c2sc3ccc(OC)cc3c21 [MM3, 5-(2-Chloro-allyl)-3-methoxy-5,6,7,8-tetrahydro-10-thia-5,8-diaza-benzo[a]azulen-9-one]	3
COc1ccc2sc3c(c2c1)NC(Cc1ccccc1)CNC3=O (centres unmarked) [PP2, 6-Benzyl-3-methoxy-5,6,7,8-tetrahydro-10-thia-5,8-diaza-benzo[a]azulen-9-one]	1.1
C=C(C)CN1CCNC(=O)c2sc3ccc([N+](=O)[O-])cc3c21 [Q, 5-(2-Methyl-allyl)-3-nitro-5,6,7,8-tetrahydro-10-thia-5,8-diaza-benz[a]azulen-9-one]	6
COc1ccc2sc3c(c2c1)N(Cc1ccc([N+](=O)[O-])cc1)CCNC3=O [SS3, 3-Methoxy-5-(4-nitro-benzyl)-5,6,7,8-tetrahydro-10-thia-5,8-diaza-benzo[a]azulen-9-one]	83
CCCN1CC(C)(C)NC(=O)c2sc3ccc(OC)cc3c21 [TT, 3-Methoxy-7,7-dimethyl-5-propyl-5,6,7,8-tetrahydro-10-thia-5,8-diaza-benzo[a]azulen-9-one]	0.4
C=CCN1CCNC(=O)c2sc3ccc([N+](=O)[O-])cc3c21 [U, 5-Allyl-3-nitro-5,6,7,8-tetrahydro-10-thia-5,8-diaza-benz[a]azulen-9-one]	8.1
COc1cccc(CN2CCNC(=O)c3sc4ccc([N+](=O)[O-])cc4c32)c1 [V, 5-(3-Methoxy-benzyl)-3-nitro-5,6,7,8-tetrahydro-10-thia-5,8-diaza-benz[a]azulen-9-one]	1.3
COc1ccc2sc3c(c2c1)N(Cc1ccccc1C)CCNC3=O [WW3, 3-Methoxy-5-(2-methyl-benzyl)-5,6,7,8-tetrahydro-10-thia-5,8-diaza-benzo[a]azulen-9-one]	10.2
COc1ccc2oc3c(c2c1)N(CCC(C)C)CCNC3=O [YY5, 3-Methoxy-5-(3-methyl-butyl)-5,6,7,8-tetrahydro-10-oxa-5,8-diaza-benzo[a]azulen-9-one]	10

Test system: not listed separately
Assay: Metabolic stability, in vitro half-life in human liver microsomes
Format: in vitro ADME
Details: liver microsomes (pooled), 30 μM compound, 0.5 mg/mL pooled microsomal protein, 1.0 mM NADPH, 37° C., pH 7.4, read-out: t½ (min) Human Liver Microsome Preparation
Procedure: Compounds were individually incubated (30 μM, dissolved in DMSO) with human and mouse liver microsomes. The incubation consisted of 50 mM KPO4, pH 7.4 buffer with 0.5 mg/mL pooled microsomal protein, 30 μM compound, and 1.0 mM NADPH. The total incubate volume was 0.5 mL. The incubate solution was pro-incubated for 3 minutes at 37° C. and the reaction initiated by the addition of NADPH. At 0, 10, 20, and 40 minutes 50 μL aliquots were removed and quenched with 100 μL acetonitrile and 25 μL of internal standard. Standard curves of each compound were prepared in a simialr manner at a concentration range of 7.5 μM to 45 μM. Th in vitro metabolic half-life determinations of these preparations were determined from the concentration vs. time plots using WinNonlin software. The in vitro half-life data represents the extent of oxidative and hydrolytic metabolism.

Molecule	half-life at 30 μM [min]
COc1ccc2sc3c(c2c1)NCCNC3=O [B, 3-Methoxy-5,6,7,8-tetrahydro-10-thia-5,8-diaza-benzo[a]azulen-9-one]	66
O=C1NCCNc2c1ccc1cnccc21 [F, 8,9,10,11-Tetrahydro-3,8,11-triaza-cyclohepta[a]naphthalen-7-one]	> 200
COc1cccc(CN2CCNC(=O)c3ccc4cnccc4c32)c1 [FF4, 11-(3-Methoxy-benzyl)-8,9,10,11-tetrahydro-3,8,11-triaza-cyclohepta[a]naphthalen-7-one]	> 200
CCN1CCNC(=O)c2oc3ccc(OC)cc3c21 [H, 5-Ethyl-3-methoxy-5,6,7,8-tetrahydro-10-oxa-5,8-diaza-benzo[a]azulen-9-one]	200
COc1ccc(CN2CC(C)(C)NC(=O)c3sc4ccc(OC)cc4c32)cc1 [K, 3-Methoxy-5-(4-methoxy-benzyl)-7,7-dimethyl-5,6,7,8-tetrahydro-10-thia-5,8-diaza-benzo[a]azulen-9-one]	150
CCOc1ccc2sc3c(c2c1)NCC(C)(C)NC3=O [NN, 3-Ethoxy-7,7-dimethyl-5,6,7,8-tetrahydro-10-thia-5,8-diaza-benzo[a]azulen-9-one]	133

Test system: Vero cells
Assay: not given
Details: African green monkey, 2 day

Molecule	CC50 [µM]
COc1cccc(CN2CC(C)NC(=O)c3sc4ccc(OC)cc4c32)c1 (centres unmarked) [EE2, 3-Methoxy-5-(3-methoxy-benzyl)-7-methyl-5,6,7,8-tetrahydro-10-thia-5,8-diaza-benzo[a]azulen-9-one]	3.4
COc1cccc(CN2CC(C)NC(=O)c3sc4ccc(OC)cc4c32)c1 (centres unmarked) [O, 3-Methoxy-5-(3-methoxy-benzyl)-7-methyl-5,6,7,8-tetrahydro-10-thia-5,8-diaza-benzo[a]azulen-9-one]	18
